Data from US11267802B2 (BEBETTER MED INC., priority 2015, dated 2022).

What was measured:
[1] = target: T1, EGFR T790M/L858R (Homo sapiens, UniProt P00533, L858R/T790M); assay: Mutant EGFR T790M/L858R activity inhibition assay (Caliper mobility shift); assay type: biochemical; details: read-out: enzyme activity inhibition (IC50) EGFR T790M/L858R
T1 construct: purchased Invitrogen PR8911A
Method: The assay procedure is as follows. […] 5 μl of the compound dissolved in 10% DMSO at a concentration of 5-fold of the final reaction concentration was added to a 384 well plate. 5 μl of 10% DMSO was used in a no-compound control well, while 5 μl of a kinase buffer was used in a no-enzyme activity control well. […] The conversion rate was read on Caliper EZ Reader II (Caliper Life Sciences). The conversion rate was then converted to inhibitory rate.
As used herein, “max” refers to the conversion rate of the DMSO no-compound control well, and “min” refers to the conversion rate of the no-enzyme activity control well. A curve was obtained by plotting the inhibitory rate as a function of the compound concentration. The XLFit excel add-in version 4.3.1 software was used to fit the curve and calculate the IC50. Inhibitory rate %=(max−conversion rate)/(max−min)×100.

[2] = system: H1975; assay: Inhibition assay on tumor cell proliferation (CellTiter-Glo), H1975; assay type: cell-based, Human; details: Homo sapiens, NCI-H1975; H1975 (L858R and T790M EGFR double mutation), 72 hours, 10% bovine serum
[3] = system: H358; assay: Inhibition assay on tumor cell proliferation (CellTiter-Glo), H358; assay type: cell-based, Human; details: Homo sapiens, NCI-H358; H358 (wild-type EGFR), 72 hours, 10% bovine serum
Method: By using a CellTiter-Glo luminescence cell viability test kit (Promega, # G7572), the content of adenosine triphosphate (ATP) was determined to assess the cell viability.
Human colon cancer cell line LOVO and human non-small-cell lung cancer H358 express wild-type EGFR. Human non-small-cell lung cancer cell line HCC827 carries deletion mutation in exon 19 (ex19del). Those cell lines are purchased from Shanghai Fudan IBS Cell Resource Center and American Tissue Culture Collection (ATCC).
The assay procedure is as follows. The cells in a cell culture plate were digested with a pancreatic enzyme, re-suspended in a DPBS culture medium, and had the cell density counted by Scepter automated cytometer (Millipore # PHCC00000). The cells were diluted to a solution of 44,000 cells per ml. The cell solution with adjusted density was added to the cell assay plate at 90 microliters per well. The plate was placed in an incubator with 5% CO2 at 37° C. for 24 hours of incubation, and then added with different concentrations of subject compounds. The cells were incubated for 72 hours with the compounds in presence of 10% bovine serum. The content of ATP was determined by a CellTiter-Glo® Luminescent Cell Viability Assay kit (see the manufacturer's instruction for details) to evaluate cell-growth inhibition.
Briefly, 30 μl of CellTiter-Glo® reagent was added to each well, and then shaken for 10 minutes to induce cell lysis. The fluorescent signal was detected and recorded by Fluoroskan Ascent FL (Thermo). The max signal value was obtained from the cells treated by dimethyl sulfoxide for 72 hours. The min signal value was obtained from the medium alone (the number of the cells was 0). Inhibitory rate %=(max signal value−compound signal value)/(max signal value−min signal value)×100. The data was processed by GraphPad Prism V5.0 software (GraphPad Software, San Diego, Calif.). Sigmoidal dose-response curve fitting was performed to calculate the IC50 value.

T1 sequence (P00533 25-1210 T790M/L858R): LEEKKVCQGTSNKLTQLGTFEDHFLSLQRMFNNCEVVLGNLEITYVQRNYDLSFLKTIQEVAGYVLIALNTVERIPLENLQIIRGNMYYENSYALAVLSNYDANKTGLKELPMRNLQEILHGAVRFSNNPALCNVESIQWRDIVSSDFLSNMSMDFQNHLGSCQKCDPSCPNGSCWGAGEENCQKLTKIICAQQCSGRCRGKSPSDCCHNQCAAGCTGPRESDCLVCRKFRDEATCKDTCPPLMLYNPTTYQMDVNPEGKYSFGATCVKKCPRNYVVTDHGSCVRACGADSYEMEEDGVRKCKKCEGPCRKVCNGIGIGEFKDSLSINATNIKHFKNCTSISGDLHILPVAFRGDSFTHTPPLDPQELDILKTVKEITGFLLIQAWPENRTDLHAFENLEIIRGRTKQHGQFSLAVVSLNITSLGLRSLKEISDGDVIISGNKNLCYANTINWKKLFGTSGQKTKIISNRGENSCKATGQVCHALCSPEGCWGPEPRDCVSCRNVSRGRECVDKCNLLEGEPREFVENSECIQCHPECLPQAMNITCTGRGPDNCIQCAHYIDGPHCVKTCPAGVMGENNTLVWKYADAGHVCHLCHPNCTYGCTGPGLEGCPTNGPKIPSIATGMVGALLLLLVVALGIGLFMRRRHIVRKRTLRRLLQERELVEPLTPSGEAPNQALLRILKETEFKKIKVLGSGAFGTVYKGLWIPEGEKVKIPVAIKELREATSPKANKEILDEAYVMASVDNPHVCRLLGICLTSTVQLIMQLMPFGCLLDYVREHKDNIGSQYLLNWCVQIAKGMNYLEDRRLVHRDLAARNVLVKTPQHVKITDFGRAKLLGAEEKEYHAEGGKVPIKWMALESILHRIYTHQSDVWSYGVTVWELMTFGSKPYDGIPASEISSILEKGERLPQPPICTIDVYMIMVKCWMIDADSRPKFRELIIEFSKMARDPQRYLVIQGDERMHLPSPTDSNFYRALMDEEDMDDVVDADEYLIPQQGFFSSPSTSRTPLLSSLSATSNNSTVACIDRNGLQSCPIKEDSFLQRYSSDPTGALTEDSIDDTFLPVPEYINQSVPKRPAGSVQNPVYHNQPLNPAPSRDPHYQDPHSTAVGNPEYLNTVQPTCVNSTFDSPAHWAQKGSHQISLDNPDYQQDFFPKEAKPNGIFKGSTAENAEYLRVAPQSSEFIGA

| SMILES | IC50 [1] [µM] | melting point [°C] | IC50 [2] [µM] | IC50 [3] [µM] |
| --- | --- | --- | --- | --- |
| C=CC(=O)Nc1cc(Nc2ncc(NC)c(-n3ccc4ccccc43)n2)c(OC)cc1N(C)CCN(C)C [Compound 11, N-(5-(4-(1H-indol-1-yl)-5-(methylamino)pyrimidin-2-ylamino)-2-((2-(dimethylamino)ethyl)(methyl)amino)-4-methoxyphenyl)acrylamide] | 0.001 to 0.01 | 154 to 156 |  |  |
| C=CC(=O)Nc1cc(Nc2nccc(-n3ccc4cc(Cl)ccc43)n2)c(OC)cc1N(C)CCN(C)C [Compound 31, N-(5-((4-(5-chloro-1H-indol-1-yl)pyrimidin-2-yl)amino)-2-((2-(dimethylamino)ethyl)(methyl)amino)-4-methoxyphenyl)acrylamide] | < 0.001 | 150 to 153 | < 0.01 | > 1 |
| C=CC(=O)Nc1cc(Nc2nccc(-n3c(=O)n(CC4CC4)c4ccccc43)n2)c(OC)cc1N(C)CCN(C)C [Compound 63, N-(5-((4-(3-(cyclopropylmethyl)-2-oxo-2,3-dihydro-1H-benzo[d]imidazol-1-yl)pyrimidin-2-yl)amino)-2-((2-(dimethylamino)ethyl)(methyl)amino)-4-methoxyphenyl)acrylamide] | < 0.001 | 68 to 72 | < 0.01 | > 1 |
| C/C=C/C(=O)Nc1cc(Nc2nccc(-n3ccc4ccccc43)n2)c(OC)cc1N(C)CCN(C)C [Compound 66, (E)-N-(5-((4-(1H-indol-1-yl)pyrimidin-2-yl)amino)-2-((2-(dimethylamino)ethyl)(methyl)amino)-4-methoxyphenyl)but-2-enamide] | 0.01 to 0.05 | 150.2 to 152.8 |  |  |
| CC/C=C/C(=O)Nc1cc(Nc2nccc(-n3ccc4ccccc43)n2)c(OC)cc1N(C)CCN(C)C [Compound 67, (E)-N-(5-((4-(1H-indol-1-yl)pyrimidin-2-yl)amino)-2-((2-(dimethylamino)ethyl)(methyl)amino)-4-methoxyphenyl)pent-2-enamide] | 0.05 to 0.1 | 124.3 to 126.2 |  |  |
| C=C(C)C(=O)Nc1cc(Nc2nccc(-n3ccc4ccccc43)n2)c(OC)cc1N(C)CCN(C)C [Compound 68, N-(5-((4-(1H-indol-1-yl)pyrimidin-2-yl)amino)-2-((2-(dimethylamino)ethyl)(methyl)amino)-4-methoxyphenyl)methacryl amide] | 0.01 to 0.05 | 145.7 to 147.1 |  |  |
| COC/C=C/C(=O)Nc1cc(Nc2nccc(-n3ccc4ccccc43)n2)c(OC)cc1N(C)CCN(C)C [Compound 71] | 0.001 to 0.01 |  |  |  |
| CCC#CC(=O)Nc1cc(Nc2nccc(-n3ccc4ccccc43)n2)c(OC)cc1N(C)CCN(C)C [Compound 74, N-(5-((4-(1H-indol-1-yl)pyrimidin-2-yl)amino)-2-((2-(dimethylamino)ethyl)(methyl)amino)-4-methoxyphenyl)pent-2-ynamide] | 0.001 to 0.01 | 149.4 to 151.7 |  |  |
| C=CC(=O)Nc1cc(Nc2nccc(-n3ccc4ccccc43)n2)c(OC)cc1N(C)CCN1CCCCC1 [Compound 81, N-(5-(4-(1H-indol-1-yl)pyrimidin-2-ylamino)-4-methoxy-2-(methyl(2-(piperidin-1-yl)ethyl)amino)phenyl)acrylamide] | 0.001 to 0.01 | 131 to 136 |  |  |
| C=CC(=O)Nc1cc(Nc2nccc(-n3ccc4ccccc43)n2)c(OC)cc1N(C)CCN1CCOCC1 [Compound 82, N-{5-(4-indol-1-yl-pyrimidin-2-ylamino)-4-methoxy-2-[methyl-(2-morpholin-4-yl-ethyl)-amino]-phenyl}-acryl amide] | 0.001 to 0.01 |  | 0.05 to 0.1 | > 1 |
| C=CC(=O)Nc1cc(Nc2nccc(-n3ccc4ccccc43)n2)c(OC)cc1N1CCN(C)CC1 [Compound 84, N-(5-((4-(1H-indol-1-yl)pyrimidin-2-yl)amino)-4-methoxy-2-(4-methylpiperazin-1-yl)phenyl)acrylamide] | 0.01 to 0.05 | 204 to 205 |  |  |
| C=CC(=O)Nc1cc(Nc2nccc(-n3c(=O)n(C4CC4)c4cc(F)ccc43)n2)c(OC)cc1N(C)CCN(C)C [Compound 98, N-(5-(4-(3-cyclopropyl-5-fluoro-2-oxo-2,3-dihydrobenzo[d]imidazol-1-yl)pyrimidin-2-ylamino)-2-((2-(dimethylamino)ethyl)(methyl)amino)-4-methoxyphenyl)acrylamide] | < 0.001 | 181 to 184 | < 0.01 | 0.1 to 1 |
| C=CC(=O)Nc1cc(Nc2nccc(-n3c(=O)n(C4CC4)c4cc(Cl)ccc43)n2)c(OC)cc1N(C)CCN(C)C [Compound 99, N-(5-((4-(5-chloro-3-cyclopropyl-2-oxo-2,3-dihydro-1H-benzo[d]imidazol-1-yl)pyrimidin-2-yl)amino)-2-((2-(dimethylamino)ethyl)(methyl)amino)-4-methoxyphenyl)acrylamide] | 0.001 to 0.01 | 124 to 126 | < 0.01 | 0.1 to 1 |
| C=CC(=O)Nc1cc(Nc2nccc(-n3c(=O)n(C4CC4)c4cc(C#N)ccc43)n2)c(OC)cc1N(C)CCN(C)C [Compound 101, N-(5-((4-(5-cyano-3-cyclopropyl-2-oxo-2,3-dihydro-1H-benzo[d]imidazol-1-yl)pyrimidin-2-yl)amino)-2-((2-(dimethylamino)ethyl)(methyl)amino)-4-methoxyphenyl)acrylamide] | < 0.001 | 177 to 179 | < 0.01 | 0.1 to 1 |
| C=CC(=O)Nc1cc(Nc2nccc(-n3c(=O)n(C4CC4)c4cc(OC)ccc43)n2)c(OC)cc1N(C)CCN(C)C [Compound 102, N-(5-((4-(3-cyclopropyl-5-methoxy-2-oxo-2,3-dihydro-1H-benzo[d]imidazol-1-yl)pyrimidin-2-yl)amino)-2-((2-(dimethylamino)ethyl)(methyl)amino)-4-methoxyphenyl)acrylamide] | < 0.001 | 144 to 146 | < 0.01 | 0.1 to 1 |
| C=CC(=O)Nc1cc(Nc2nccc(-n3c(=O)n(CC4CC4)c4cc(F)ccc43)n2)c(OC)cc1N(C)CCN(C)C [Compound 105, N-(5-(4-(3-(cyclopropylmethyl)-5-fluoro-2-oxo-2,3-dihydro-1H-benzo[d]imidazol-1-yl)pyrimidin-2-ylamino)-2-((2-(dimethylamino)ethyl)(methyl)amino)-4-methoxyphenyl)acrylamide] | < 0.001 |  | < 0.01 | 0.1 to 1 |
| C=CC(=O)Nc1cc(Nc2nccc(-n3c(=O)n(C)c4ccccc43)n2)c(OCCOC)cc1N(C)CCN(C)C [Compound 120, N-{2-[(2-dimethylamino-ethyl)-methyl-amino]-4-(2-methoxy-ethoxy)-5-[4-(3-methyl-2-oxo-2,3-dihydro-benzoimidazol-1-yl)-pyrimidin-2-ylamino]-phenyl}-acrylamide] | 0.001 to 0.01 | 71 to 78 |  |  |
| C=CC(=O)Nc1cc(Nc2nccc(-n3c(=O)n(C)c4ccccc43)n2)ccc1N(C)CCN(C)C [Compound 125, N-(2-((2-(dimethylamino)ethyl)(methyl)amino)-5-((4-(3-methyl-2-oxo-2,3-dihydro-1H-benzo[d]imidazol-1-yl)pyrimidin-2-yl)amino)phenyl)acrylamide] | < 0.001 | 190 to 193 | < 0.01 | 0.1 to 1 |
| C=CC(=O)Nc1cc(Nc2nccc(-n3c(=O)n(C)c4ccccc43)n2)c(C(C)C)cc1N(C)CCN(C)C [Compound 132, N-(2-((2-(dimethylamino)ethyl)(methyl)amino)-4-isopropyl-5-((4-(3-methyl-2-oxo-2,3-dihydro-1H-benzo[d]imidazol-1-yl)pyrimidin-2-yl)amino)phenyl)acrylamide] | 0.001 to 0.01 |  | < 0.01 | > 1 |
